The text below walks through data of PubChem BioAssay AID330 (DTP/NCI, 2004).

Molecules are shown by their SMILES. Values joined by “and” are separate entries in the source; they are usually repeats but may differ in a detail not shown here. Identical values can stand only once. Inconclusive results and toxic doses are left out.

The test system of this experiment is P388 leukemia ip, CD2F1 mice, survival T/C. Description: NCI In Vivo Anticancer Drug Screen. Data for tumor model P388 Leukemia (intraperitoneal) in CD2F1 (CDF1) mice. The following applies: endpoint: median survival time, higher = longer survival. Put shortly: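 Mice carrying the transplanted tumor received test compound or vehicle. Survival was recorded in each group, and the value is the treated-group measurement divided by that of the vehicle-treated control group.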

Setting [1] is: dose: 100.0 mg/kg/injection, schedule: Q04DX002 (ip), vehicle: Klucel (hydroxypropylcellulose) (HPC).
[2] abbreviates: dose: 200.0 mg/kg/injection, schedule: Q04DX002 (ip), vehicle: Klucel (hydroxypropylcellulose) (HPC).
[3] abbreviates: dose: 400.0 mg/kg/injection, schedule: Q04DX002 (ip), vehicle: Klucel (hydroxypropylcellulose) (HPC).
[4] abbreviates: dose: 50.0 mg/kg/injection, schedule: Q01DX009 (ip), vehicle: Klucel (hydroxypropylcellulose) (HPC).
Setting [5] is: dose: 100.0 mg/kg/injection, schedule: Q01DX009 (ip), vehicle: Klucel (hydroxypropylcellulose) (HPC).
Setting [6] is: dose: 200.0 mg/kg/injection, schedule: Q01DX009 (ip), vehicle: Klucel (hydroxypropylcellulose) (HPC).
Where [7] appears, read: dose: 50.0 mg/kg/injection, schedule: Q01DX009 (ip), vehicle: saline.
Setting [8] is: dose: 50.0 mg/kg/injection, schedule: Q01DX005 (ip), vehicle: saline with Tween-80.
Setting [9] is: dose: 100.0 mg/kg/injection, schedule: Q01DX005 (ip), vehicle: saline with Tween-80.
Where [10] appears, read: dose: 200.0 mg/kg/injection, schedule: Q01DX005 (ip), vehicle: saline with Tween-80.

With `O=C(Nc1ccc(C2=NCCN2)cc1)Nc1cccc(NC(=O)Nc2cccc(C3=NCCN3)c2)c1`, the T/C is 104 % of control (dose: 0.75 mg/kg/injection, schedule: Q04DX003 (ip), vehicle: saline with Tween-80); 118 % of control (dose: 1.5 mg/kg/injection, schedule: Q04DX003 (ip), vehicle: saline with Tween-80); 163 % of control (dose: 8.0 mg/kg/injection, schedule: Q01DX009 (ip), vehicle: saline with Tween-80); 254 % of control (dose: 12.0 mg/kg/injection, schedule: Q01DX009 (ip), vehicle: saline with Tween-80); 150 % of control (dose: 12.5 mg/kg/injection, schedule: Q04DX003 (ip), vehicle: saline with Tween-80); 272 % of control (dose: 18.0 mg/kg/injection, schedule: Q01DX009 (ip), vehicle: saline with Tween-80). Further, the T/C (dose: 100.0 mg/kg/injection, schedule: Q04DX003 (ip), vehicle: saline) is 104 % of control.

Consider `[O-]c1n[n+](Cc2ccc(Br)cc2)no1`, for which the T/C reads like this: (dose: 50.0 mg/kg/injection, schedule: Q04DX003 (ip), vehicle: Klucel (hydroxypropylcellulose) (HPC)) 96 % of control; (dose: 100.0 mg/kg/injection, schedule: Q04DX003 (ip), vehicle: Klucel (hydroxypropylcellulose) (HPC)) 100 % of control; (dose: 200.0 mg/kg/injection, schedule: Q04DX003 (ip), vehicle: Klucel (hydroxypropylcellulose) (HPC)) 110 % of control.

As to `O=[N+]([O-])c1ccc(F)c(Cl)c1`, the T/C runs as follows: (dose: 100.0 mg/kg/injection, schedule: Q04DX003 (ip), vehicle: other) 100 % of control; (dose: 200.0 mg/kg/injection, schedule: Q04DX003 (ip), vehicle: other) 100 % of control.

As for `OCC1OC(n2ncc3nccnc32)C(O)C1O` (stereo unspecified), the T/C (dose: 32.0 mg/kg/injection, schedule: Q01DX002 (ip), vehicle: saline with Tween-80) is 98 % of control and 114 % of control; the T/C (dose: 64.0 mg/kg/injection, schedule: Q01DX002 (ip), vehicle: saline with Tween-80) was 98 % of control and 109 % of control; the T/C (dose: 128.0 mg/kg/injection, schedule: Q01DX002 (ip), vehicle: saline with Tween-80) is 112 % of control and 114 % of control.

In the case of `CC(=NCCN=C(C)c1cc(C)ccc1O)c1cc(C)ccc1O`, the T/C runs as follows: under setting [1], 101 % of control; under setting [2], 100 % of control; under setting [3], 99 % of control.

With `C[C@]12CCNC(=O)C=C1CC[C@@H]1C2CC[C@@]2(C)C1CC[C@@H]2OC(=O)COc1ccc(N(CCCl)CCCl)cc1` (stereo partly specified), the T/C (dose: 100.0 mg/kg/injection, schedule: Q04DX002 (ip), vehicle: saline with Tween-80) was 159 % of control; the T/C (dose: 200.0 mg/kg/injection, schedule: Q04DX002 (ip), vehicle: saline with Tween-80) is 199 % of control; the T/C (dose: 400.0 mg/kg/injection, schedule: Q04DX002 (ip), vehicle: saline with Tween-80) was 225 % of control.

As to `CCN(C(=S)NCCCOC)c1ccc(C)cc1`, the T/C was 97 % of control under setting [4], 86 % of control under setting [5] and 87 % of control under setting [6].

Take `CNC1C(O)C2Oc3c(cc(O)c4c3C(=O)c3cc5c(c(O)c3C4=O)C(OC3OC(C)C(OC)C(C)(OC)C3OC)CC(C)(O)C5C(=O)OC)C(C)(O2)C1O` (stereo unspecified): the T/C runs as follows: (dose: 3.12 mg/kg/injection, schedule: Q04DX003 (ip), vehicle: other) 99 % of control; (dose: 6.25 mg/kg/injection, schedule: Q04DX003 (ip), vehicle: other) 115 % of control; (dose: 12.5 mg/kg/injection, schedule: Q04DX003 (ip), vehicle: other) 150 % of control; (dose: 25.0 mg/kg/injection, schedule: Q04DX003 (ip), vehicle: other) 160 % of control.

Consider `COCOCC(N)CS(C)=O` (stereo unspecified), for which the T/C is, setting by setting: (dose: 50.0 mg/kg/injection, schedule: Q01DX005 (ip), vehicle: water) 105 % of control; (dose: 100.0 mg/kg/injection, schedule: Q01DX005 (ip), vehicle: water) 97 % of control; (dose: 200.0 mg/kg/injection, schedule: Q01DX005 (ip), vehicle: water) 102 % of control.

On to `O=[N+]([O-])c1c(Sc2ncccn2)ncnc1Sc1ncccn1`, for which the T/C was 105 % of control (dose: 3.12 mg/kg/injection, schedule: Q01DX009 (ip), vehicle: saline with Tween-80); 115 % of control (dose: 6.25 mg/kg/injection, schedule: Q01DX009 (ip), vehicle: saline with Tween-80); 113 % of control (dose: 12.5 mg/kg/injection, schedule: Q01DX009 (ip), vehicle: saline with Tween-80); 114 % of control (dose: 12.5 mg/kg/injection, schedule: Q01DX009 (ip), vehicle: saline); 114 % of control (dose: 25.0 mg/kg/injection, schedule: Q01DX009 (ip), vehicle: saline); 108 % of control under setting [7].

For `COc1cc([N+](=O)[O-])cc2c1OC1(N=C2)Sc2ccccc2N1C` (stereo unspecified), the T/C is 103 % of control (dose: 100.0 mg/kg/injection, schedule: Q01DX001 (ip), vehicle: saline); 100 % of control (dose: 200.0 mg/kg/injection, schedule: Q01DX001 (ip), vehicle: saline); 103 % of control (dose: 400.0 mg/kg/injection, schedule: Q01DX001 (ip), vehicle: saline).

Consider `Cc1nc2ccccc2c(=O)o1`, for which the T/C under setting [4] is 97 % of control; the T/C under setting [5] was 98 % of control; the T/C under setting [1] is 105 % of control; the T/C under setting [6] was 90 % of control; the T/C under setting [2] is 107 % of control; the T/C under setting [3] is 100 % of control.

For `C#Cc1cccc(N=Cc2cc([N+](=O)[O-])ccc2O)c1`, the T/C was 100 % of control under setting [8], 99 % of control under setting [9] and 93 % of control under setting [10].

Turning to `O=C(NC(C(=O)NO)C(NO)c1ccccc1)c1ccccc1` (stereo unspecified), the T/C was 103 % of control under setting [8], 102 % of control under setting [9] and 102 % of control under setting [10].

For `CC1CN2CCOC2(C)O1` (stereo unspecified), the T/C is, setting by setting: (dose: 60.0 mg/kg/injection, schedule: Q01DX005 (ip), vehicle: saline) 106 % of control; (dose: 120.0 mg/kg/injection, schedule: Q01DX005 (ip), vehicle: saline) 102 % of control; (dose: 240.0 mg/kg/injection, schedule: Q01DX005 (ip), vehicle: saline) 101 % of control.

Turning to `Cc1ccc(C(=O)CC2(O)C(=O)Nc3ccccc32)cc1` (stereo unspecified), the T/C is, setting by setting: under setting [4], 96 % of control; under setting [5], 92 % of control; under setting [6], 87 % of control.

Take `O=C(N/C(=C\c1ccc(Cl)cc1)c1nc2ccccc2s1)c1ccccc1`: the T/C reads like this: (dose: 60.0 mg/kg/injection, schedule: Q01DX005 (ip), vehicle: saline with Tween-80) 111 % of control; (dose: 120.0 mg/kg/injection, schedule: Q01DX005 (ip), vehicle: saline with Tween-80) 113 % of control; (dose: 240.0 mg/kg/injection, schedule: Q01DX005 (ip), vehicle: saline with Tween-80) 113 % of control.

For `Cc1cccc(NC(=O)NC2CCCCC2)c1`, the T/C runs as follows: under setting [7], 103 % of control; (dose: 100.0 mg/kg/injection, schedule: Q01DX009 (ip), vehicle: saline) 102 % of control; (dose: 200.0 mg/kg/injection, schedule: Q01DX009 (ip), vehicle: saline) 93 % of control.

As for `Cn1c(N)c(C(=O)N2CCN(c3ccccc3)CC2)c(=O)n(C)c1=O`, the T/C is 94 % of control under setting [4], 97 % of control under setting [5] and 91 % of control under setting [6].

Consider `Nc1nnc(-c2cc(=O)c3cc(Cl)ccc3o2)s1`, for which the T/C is, setting by setting: under setting [8], 97 % of control; under setting [9], 100 % of control; under setting [10], 93 % of control.

On to `CN(C)c1ccc(-c2nc3c4ccccc4c4ccccc4c3[nH]2)cc1`, for which the T/C runs as follows: (dose: 50.0 mg/kg/injection, schedule: Q01DX009 (ip), vehicle: saline with Tween-80) 105 % of control; (dose: 100.0 mg/kg/injection, schedule: Q01DX009 (ip), vehicle: saline with Tween-80) 90 % of control; (dose: 200.0 mg/kg/injection, schedule: Q01DX009 (ip), vehicle: saline with Tween-80) 87 % of control.

As for `CC(C)(O)c1ccccc1S(=O)c1ccccc1C(C)(C)O`, the T/C is 93 % of control (dose: 100.0 mg/kg/injection, schedule: Q01DX001 (ip), vehicle: saline with Tween-80); 95 % of control (dose: 200.0 mg/kg/injection, schedule: Q01DX001 (ip), vehicle: saline with Tween-80); 98 % of control (dose: 400.0 mg/kg/injection, schedule: Q01DX001 (ip), vehicle: saline with Tween-80).
